pIC50: −log10 of the molar value.
Experiments:
[1] = tested on: MDA-MB-231, human breast cancer cells; test: Proliferation assay MDA-MB-231 (crystal violet, 4 days); format: cell-based; settings: Homo sapiens, MDA-MB-231, 96 h, MDA-MB-231 cells, median, read-out: Prolif-MDA MB-231, IC50-[mol/l] (median)
Outline: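 Growth was measured by crystal violet staining after cells had been treated with compounds (0.01-10 µmol/L, 0.1% DMSO) for 4 days, beginning 24 h after seeding. Values were normalized to a zero-point plate and to untreated controls, and IC50 values were derived by a four-parameter fit.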

CDK2/CycE = molecular target: T1, CDK2/CycE (Homo sapiens, UniProt P24941); test: CDK2/CycE kinase assay (TR-FRET, 2 mM ATP); format: biochemical; settings: 2 mM ATP (high ATP); median; read-out: CDK2/CyclinE, 2 mM ATP (high ATP), IC50 (median)
T1 construct: purchased ProQinase GmbH (Freiburg, Germany); host or cells: insect cells (Sf9)
Outline: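 Biotin-peptide phosphorylation (0.75 µM substrate, 2 mM ATP final, 25 min, 22 °C) by Sf9-expressed GST-CDK2/GST-CycE, after a 15-min compound pre-binding step. Inhibition scaled between enzyme-free (100%) and uninhibited (0%) wells.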

CN1CCN(c2nc(NCc3nc4c(OC(F)(F)F)cccc4[nH]3)n3ncc(Br)c3n2)CC1 [Example 376, 8-bromo-2-(4-methylpiperazin-1-yl)-N-{[4-(trifluoromethoxy)-1H-benzimidazol-2-yl]methyl}pyrazolo[1,5-a][1,3,5]triazin-4-amine]
pIC50 [1]: 6.99 | pIC50 (CDK2/CycE): < 4.70

Cc1cc2nc(CNc3nc(N4CCOCC4)nc4c(C5CC5)cnn34)[nH]c2cc1C [Example 320, 8-cyclopropyl-N-[(5,6-dimethyl-1H-benzimidazol-2-yl)methyl]-2-(morpholin-4-yl)pyrazolo[1,5-a][1,3,5]triazin-4-amine]
pIC50 [1]: 8.38 | pIC50 (CDK2/CycE): 5.33

CN(CC(C)(C)O)c1nc(NCc2nc3cc(F)c(F)cc3[nH]2)n2ncc(Br)c2n1 [Example 347]
pIC50 [1]: 8.36 | pIC50 (CDK2/CycE): 5.04

Clc1cc2nc(CNc3nc(N4CC5CCC(C4)N5)nc4c(Br)cnn34)[nH]c2cc1Cl [Example 334, 8-bromo-2-(3,8-diazabicyclo[3.2.1]octan-3-yl)-N-[(5,6-dichloro-1H-benzimidazol-2-yl)methyl]pyrazolo[1,5-a][1,3,5]triazin-4-amine]
pIC50 [1]: 8.66 | pIC50 (CDK2/CycE): 4.98

Cc1cc2nc(CNc3nc(N(C)CC(C)(C)O)nc4c(C5CC5)cnn34)[nH]c2cc1C [Example 321, 1-[(8-cyclopropyl-4-{[(5,6-dimethyl-1H-benzimidazol-2-yl)methyl]amino}pyrazolo[1,5-a][1,3,5]triazin-2-yl)(methyl)amino]-2-methylpropan-2-ol]
pIC50 [1]: 8.61 | pIC50 (CDK2/CycE): 6.00
